ChEMBL document CHEMBL5053557, “Discovery of Novel Dual-Target Inhibitor of Bromodomain-Containing Protein 4/Casein Kinase 2 Inducing Apoptosis and Autophagy-Associated Cell Death for Triple-Negative Breast Cancer Therapy” (J Med Chem, 2021)
The source made the active and inactive calls. The rule behind the calls is not given here.

Assays:
[1] = tested on: MDA-MB-468; experiment: Antiproliferative activity against human MDA-MB-468 cells incubated for 24 hrs by MTT assay; format: functional, cell-based; settings: MDA-MB-468, 24 h
[2] = tested on: MDA-MB-231; experiment: cells; settings: Homo sapiens, MDA-MB-231, 24 h
[3] = tested on: MDA-MB-231; experiment: Antitumor activity against human MDA-MB-231 cells xenografted in po dosed nude BALB/c mouse assessed as tumor growth inhibition at 1:1 JQ-1 : compound ratio administered once daily for 19 days and measured every 3 days; format: functional, organism-based; settings: dose 50.0 mg/kg, time 19.0 day
[4] = tested on: Mus musculus; experiment: Toxicity in nude BALB/c mouse xenografted with human MDA-MB-231 cells assessed as change in body weight at 50 mg/kg, po containing 1:1 compound : JQ-1 ratio administered once daily for 19 days and measured every 3 days; format: organism-based; settings: in vivo, 456 h, time 19 day

Compound	IC50 [1] [µM]	IC50 [2] [µM]	Activity [3]	Activity [4]
COc1cc(OC)c2c(=O)[nH]c(-c3cc(Br)c(OCC(=O)Nc4ccc(N5CCCCC5)cc4)c(Br)c3)nc2c1	15.6	16.4		
COc1cc(OC)c2c(=O)[nH]c(-c3ccccc3OC)nc2c1	44.6	> 50		
COc1ccc2oc(-c3ccccc3)cc(=S)c2c1	> 50	> 50		
COc1cc(OC)c2c(=O)[nH]c(-c3cc(C)c(O)c(C)c3)nc2c1	19.3	17.5		
COc1cc(OC)c2c(=O)cc(-c3cc(C)cc(C)c3)oc2c1	39.6	47.8		
COc1cc(OC)c2c(=O)[nH]c(-c3ccc(OCC(=O)Nc4ccc(N5CCOCC5)c(F)c4)cc3)nc2c1	8.58	7.09		
COc1cc(OC)c2c(=O)[nH]c(-c3ccc(OCC(=O)NC4CCN(C(=O)OC(C)(C)C)CC4)cc3)nc2c1	16.6	13.1		
COc1cc(OC)c2c(=O)[nH]c(-c3cc(C)c(OCC(=O)Nc4nc5ccccc5[nH]4)c(C)c3)nc2c1	30.3	> 50		
COc1cc(OC)c2c(=O)[nH]c(-c3ccc(OCC(=O)Nc4ccc(N5CCCC5)cc4)cc3)nc2c1	7.82	19.6		
COc1cc(OC)c2c(=O)[nH]c(-c3ccc(OCC(=O)O)cc3)nc2c1	18.6	19.7		
O=c1cc(-c2ccccc2)oc2ccc(Br)cc12 [6-BROMOFLAVONE]	48.2	33.5		
COc1cc(OC)c2c(=O)[nH]c(-c3cc(Br)c(OCC(=O)Nc4ccc(N5CCOCC5)c(Cl)c4)c(Br)c3)nc2c1	5.53	4.02		
CN1CCN(c2ccc(NC(=O)COc3ccc(-c4nc5cc(Cl)ccc5c(=O)[nH]4)cc3)cc2Cl)CC1	15.3	14.4		
COc1cc(OC)c2c(=O)[nH]c(-c3cc(C)c(OCC(=O)Nc4ccc(N5CCOCC5)c(Cl)c4)c(C)c3)nc2c1	6.31	10.2		
COc1cc(OC)c2c(=O)[nH]c(-c3cc(C)c(OCC(=O)Nc4ccc(N5CCN(C)CC5)cc4)c(C)c3)nc2c1	12.6	10.8		
COc1cccc(-c2nc3cc(OC)cc(OC)c3c(=O)[nH]2)c1	29.3	38.3		
COc1cc(OC)c2c(=O)[nH]c(-c3ccc(N)cc3)nc2c1	> 50	36.5		
COc1cc(OC)c2c(=O)[nH]c(-c3ccc(OCC(=O)Nc4ccc(N5CCCCC5)cc4)cc3)nc2c1	11.6	10.3		
COc1cc(OC)c2c(=O)[nH]c(-c3cc(C)c(OCC(=O)Nc4ccc(N5CCCCC5)cc4)c(C)c3)nc2c1	9.43	13.4		
COc1cc(OC)c2c(=O)[nH]c(-c3ccccc3OCC(=O)O)nc2c1	18.6	36.7		
Cc1ccc2nc(-c3ccc(OCC(=O)Nc4ccc(N5CCN(C)CC5)c(Cl)c4)cc3)[nH]c(=O)c2c1	16.2	17.4		
COc1cc(OC)c2c(=O)[nH]c(-c3cc(C)c(OCC(=O)NC4CCN(C(=O)OC(C)(C)C)CC4)c(C)c3)nc2c1	17.2	22.4		

Compound	IC50 [1] [µM]	IC50 [2] [µM]	Activity [3]	Activity [4]
COc1cc(OC)c2c(=O)[nH]c(-c3cc(C)c(OCC(=O)Nc4cccc(N5CCOCC5)c4)c(C)c3)nc2c1	13.4	11.3		
CN1CCN(c2ccc(NC(=O)COc3ccc(-c4nc5cc(F)ccc5c(=O)[nH]4)cc3)cc2Cl)CC1	7.51	6.94		
COc1cc(OC)c2c(=O)[nH]c(-c3ccc(NC(C)=O)cc3)nc2c1	24.7	27.3		
COc1cccc(-c2cc(=S)c3cc(OC)ccc3o2)c1	> 50	> 50		
COc1cc(OC)c2c(=O)[nH]c(-c3cc(C)c(OCC(=O)NC4CCN(C)CC4)c(C)c3)nc2c1	15.6	17.2		
COc1cc(OC)c2c(=O)[nH]c(-c3ccc(OCC(=O)Nc4ccc(N5CCN(C)CC5)cc4)cc3)nc2c1	8.8	6.46		
COc1ccc2oc(-c3cc(C)cc(C)c3)cc(=O)c2c1	> 50	45.7		
COc1cc(OC)c2c(=S)cc(-c3cc(C)cc(C)c3)oc2c1	> 50	> 50		
COc1cc(OC)c2c(=O)[nH]c(-c3ccc(OCC(=O)Nc4cc(OC)c(OC)c(OC)c4)cc3)nc2c1	15	23.4		
COc1ccc2nc(-c3ccc(NC(C)=O)cc3)[nH]c(=O)c2c1	41.2	> 50		
Cc1ccc(-c2nc3ccccc3c(=O)[nH]2)cc1	> 50	> 50		
COC(=O)COc1ccc(-c2nc3cc(OC)cc(OC)c3c(=O)[nH]2)cc1	13.8	22		
COc1cc(OC)c2c(=O)[nH]c(-c3ccc(OCC(=O)Nc4ccc(N5CCOCC5)cc4)cc3)nc2c1	9.54	7.67		
COc1cc(OC)c2c(=O)[nH]c(-c3cc(C)c(OCC(=O)Nc4ccc(N5CCN(C)CC5)c(F)c4)c(C)c3)nc2c1	8.33	5.72		
COc1cc(OC)c2c(=O)[nH]c(-c3ccc(OCC(=O)Nc4ccc(N5CCN(C)CC5)c(F)c4)cc3)nc2c1	7.55	6.3		
COc1cc(OC)c2c(=O)[nH]c(-c3cc(C)c(OCC(=O)Nc4ccc(N5CCN(C)CC5)c(Cl)c4)c(C)c3)nc2c1	4.58	3.49		
O=C(O)c1ccc2c(c1)nc(Nc1cccc(Cl)c1)c1ccncc12 [SILMITASERTIB]			Active	Toxic
COc1cc(OC)c2c(=O)[nH]c(-c3ccc(C(=O)O)cc3)nc2c1	8.33	21.1		
COc1cc(-c2nc3ccccc3c(=O)[nH]2)cc(OC)c1O	> 50	> 50		
COc1cc(OC)c2c(=O)[nH]c(-c3ccc(O)c(Br)c3)nc2c1	22.3	23.2		
COc1cc(OC)c2c(=O)[nH]c(-c3cc(C)c(OCC(=O)Nc4ccc(N5CCOCC5)c(F)c4)c(C)c3)nc2c1	9.16	10.3		
COc1cc(OC)c2c(=O)[nH]c(-c3cc(C)c(OCC(=O)Nc4ccc(N5CCOCC5)cc4)c(C)c3)nc2c1	9.49	8.23		

Compound	IC50 [1] [µM]	IC50 [2] [µM]	Activity [3]	Activity [4]
CN1CCN(c2ccc(NC(=O)COc3ccc(-c4nc5ccc(Cl)cc5c(=O)[nH]4)cc3)cc2Cl)CC1	6.23	5.21		
COc1cc(OC)c2c(=O)[nH]c(-c3cc(C)c(OCC(=O)Nc4cccc(N5CCN(C)CC5)c4)c(C)c3)nc2c1	15.7	14.6		
COc1cc(OC)c2c(=O)[nH]c(-c3cc(Br)c(OCC(=O)Nc4ccc(N5CCN(C)CC5)cc4)c(Br)c3)nc2c1	15.8	13.6		
COc1ccc2nc(-c3ccc(C)cc3)[nH]c(=O)c2c1	30.4	> 50		
COc1cc(OC)c2c(=O)[nH]c(-c3ccc(OCC(=O)NCC4CCOCC4)cc3)nc2c1	26.6	21.2		
COc1cc(OC)c2c(=O)[nH]c(-c3ccc(OCC(=O)Nc4cccc(N5CCN(C)CC5)c4)cc3)nc2c1	8.07	13.2		
COc1cc(OC)c2c(=O)[nH]c(-c3cc(Br)c(OCC(=O)NC4CCN(C)CC4)c(Br)c3)nc2c1	14.8	16.9		
COc1cc(OC)c2c(=O)[nH]c(-c3ccc(C)cc3)nc2c1	38.4	45.6		
COc1cc(OC)c2c(=O)[nH]c(-c3cc(C)c(Br)c(C)c3)nc2c1	29.6	25.2		
COc1cc(OC)c2c(=O)[nH]c(-c3cc(Br)c(OCC(=O)Nc4ccc(N5CCOCC5)cc4)c(Br)c3)nc2c1	15.1	13.2		
COc1cc(OC)c2c(=O)[nH]c(-c3ccc(OCC(=O)Nc4ccccc4N4CCN(C)CC4)cc3)nc2c1	11.5	17.3		
COc1cc(OC)c2c(=O)[nH]c(-c3ccc(OCC(=O)Nc4cccc(N5CCOCC5)c4)cc3)nc2c1	17.8	15.3		
CC(=O)Nc1ccc(-c2nc3ccccc3c(=O)[nH]2)cc1	> 50	> 50		
COc1cc(OC)c2c(=O)[nH]c(-c3cccc(C)c3)nc2c1	39.4	43.9		
COc1ccc2nc(-c3cc(OC)c(O)c(OC)c3)[nH]c(=O)c2c1	43.3	> 50		
COc1cc(OC)c2c(=O)[nH]c(-c3cccc(OCC(=O)O)c3)nc2c1	22.7	25.6		
COc1cccc(-c2cc(=O)c3cc(OC)ccc3o2)c1 [6,3'-DIMETHOXYFLAVONE]	> 50	> 50		
COc1cc(OC)c2c(=O)[nH]c(-c3cc(C)c(OCC(=O)NCC4CCOCC4)c(C)c3)nc2c1	25.6	23.6		
COc1cc(OC)c2c(=O)[nH]c(-c3cc(C)c(OCC(=O)Nc4cc(OC)c(OC)c(OC)c4)c(C)c3)nc2c1	16.6	24.4		
COc1cc(OC)c2c(=O)[nH]c(-c3ccc(OCC(=O)Nc4ccc(N5CCOCC5)c(Cl)c4)cc3)nc2c1	8.29	4.52		
